Publication PMC6429214, “Design, Synthesis and Biological Evaluation of Isoxazole-Based CK1 Inhibitors Modified with Chiral Pyrrolidine Scaffolds” (Molecules, 2019)

Columns and labels:
Test in all cases: 33PanQinase panel
Format in all cases: biochemical
PRKD2 = target: T1, PRKD2 (Homo sapiens, UniProt Q9BZL6); details: PRKD2, 1 µM; read-out: Residual Activity (%)
T1 construct: purchased ProQinase
Description: (§1) Figure 5 Dendrogram representation of the selectivity profile of 29d at a concentration of 1 μM in a panel of 320 wild-type kinases (ProQinase, Freiburg, Germany). The residual kinase activity was determined compared to DMSO control. Images were generated using TREEspot Software Tool, DISCOVERX CORPORATION 2010. […]
(§2) Table S2. Selectivity profile of compound 29d. The inhibitor has been screened at a concentration of 1 µM over a panel of 320 wild-type protein kinases by ProQinase GmbH (Freiburg, Germany) using an activity-based radiometric 33PanQinase® assay. Results are presented as percentage of residual kinase activity relative to […]
(§3) control. The final DMSO concentration was 1 % in each reaction-mix. Classification of protein kinase families refers to Manning et al. (Manning, G.; Whyte, D. B.; Martinez, R.; Hunter, T.; Sudarsanam, S. The Protein Kinase Complement of the Human Genome. Science 2002, 298, 1912–1934): AGC = containing PKA, PKG, PKC families; […] = containing Cdk, MAPK, GSK3, CLK families; STE = homologs of yeast sterile 7, sterile 11, sterile 20 kinases; TK = tyrosine kinase; TKL = tyrosine kinase-like.
(§4) Kinase name Kinase family Residual Activity (%)

VEGF-R3 = target: T2, VEGF-R3 (Homo sapiens, UniProt P35916); details: VEGF-R3, 1 µM; read-out: Residual Activity (%)
T2 construct: purchased ProQinase
Description: as §1, §2, §3, §4

MEKK2 = target: T3, MEKK2 (Homo sapiens, UniProt Q9Y2U5); details: MEKK2, 1 µM; read-out: Residual Activity (%)
T3 construct: purchased ProQinase
T3 sequence (Q9Y2U5 whole entry): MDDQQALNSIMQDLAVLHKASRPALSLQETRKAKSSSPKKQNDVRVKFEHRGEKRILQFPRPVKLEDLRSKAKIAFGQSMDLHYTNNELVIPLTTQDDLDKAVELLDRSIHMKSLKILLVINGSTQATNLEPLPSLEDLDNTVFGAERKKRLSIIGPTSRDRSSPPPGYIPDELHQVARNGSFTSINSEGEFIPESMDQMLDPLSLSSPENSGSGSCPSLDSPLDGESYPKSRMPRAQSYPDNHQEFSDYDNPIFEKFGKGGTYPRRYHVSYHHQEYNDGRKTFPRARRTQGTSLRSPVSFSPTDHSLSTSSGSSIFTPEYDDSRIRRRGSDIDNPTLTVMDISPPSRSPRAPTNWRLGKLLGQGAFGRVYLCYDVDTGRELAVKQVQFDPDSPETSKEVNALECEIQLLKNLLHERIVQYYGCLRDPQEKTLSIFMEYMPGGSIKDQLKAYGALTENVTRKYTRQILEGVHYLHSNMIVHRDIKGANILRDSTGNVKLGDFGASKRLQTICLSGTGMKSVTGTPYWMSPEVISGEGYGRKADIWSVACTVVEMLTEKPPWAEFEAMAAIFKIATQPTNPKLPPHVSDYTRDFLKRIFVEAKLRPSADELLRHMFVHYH
Description: as §1, §2, §3, §4

IKK-beta = target: T4, IKK-beta (Homo sapiens, UniProt O14920); details: read-out: Residual Activity (%)
T4 construct: purchased ProQinase
Description: as §1, §2, §3, §4

PKMYT1 = target: T5, PKMYT1 (Homo sapiens, UniProt Q99640); details: PKMYT1, 1 µM; read-out: Residual Activity (%)
T5 construct: purchased ProQinase
Description: as §1, §2, §3, §4

JNK2 = target: T6, JNK2 (Homo sapiens, UniProt P45984); details: JNK2, 1 µM; read-out: Residual Activity (%)
T6 construct: purchased ProQinase
Description: as §1, §2, §3, §4

PKC-delta = target: T7, PKC-delta (Homo sapiens, UniProt Q05655); details: read-out: Residual Activity (%)
T7 construct: purchased ProQinase
T7 sequence (Q05655 whole entry): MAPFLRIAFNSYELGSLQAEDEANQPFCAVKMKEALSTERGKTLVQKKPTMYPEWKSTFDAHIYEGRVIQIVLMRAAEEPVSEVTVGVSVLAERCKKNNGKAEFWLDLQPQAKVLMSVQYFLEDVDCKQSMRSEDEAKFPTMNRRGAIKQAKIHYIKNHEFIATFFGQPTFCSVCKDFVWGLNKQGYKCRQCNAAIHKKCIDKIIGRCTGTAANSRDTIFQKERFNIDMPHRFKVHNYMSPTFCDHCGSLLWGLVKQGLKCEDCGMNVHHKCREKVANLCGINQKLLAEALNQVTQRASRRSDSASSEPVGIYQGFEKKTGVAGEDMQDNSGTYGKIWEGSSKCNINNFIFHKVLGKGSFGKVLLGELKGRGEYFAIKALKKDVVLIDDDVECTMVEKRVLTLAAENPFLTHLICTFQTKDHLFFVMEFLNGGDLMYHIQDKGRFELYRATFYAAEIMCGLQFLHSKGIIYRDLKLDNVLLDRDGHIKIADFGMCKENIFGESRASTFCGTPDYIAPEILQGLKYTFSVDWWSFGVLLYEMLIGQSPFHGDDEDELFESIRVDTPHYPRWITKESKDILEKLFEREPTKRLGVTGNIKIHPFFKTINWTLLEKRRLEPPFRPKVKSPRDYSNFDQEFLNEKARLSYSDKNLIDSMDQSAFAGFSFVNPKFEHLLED
Description: as §1, §2, §3, §4

EPHA5 = target: T8, EPHA5 (Homo sapiens, UniProt P54756); details: EPHA5, 1 µM; read-out: Residual Activity (%)
T8 construct: purchased ProQinase
Description: as §1, §2, §3, §4

BRSK1 = target: T9, BRSK1 (Homo sapiens, UniProt Q8TDC3); details: BRSK1, 1 µM; read-out: Residual Activity (%)
T9 construct: purchased ProQinase
Description: as §1, §2, §3, §4

RIPK2 = target: T10, RIPK2 (Homo sapiens, UniProt O43353); details: RIPK2, 1 µM; read-out: Residual Activity (%)
T10 construct: purchased ProQinase
T10 sequence (O43353 whole entry): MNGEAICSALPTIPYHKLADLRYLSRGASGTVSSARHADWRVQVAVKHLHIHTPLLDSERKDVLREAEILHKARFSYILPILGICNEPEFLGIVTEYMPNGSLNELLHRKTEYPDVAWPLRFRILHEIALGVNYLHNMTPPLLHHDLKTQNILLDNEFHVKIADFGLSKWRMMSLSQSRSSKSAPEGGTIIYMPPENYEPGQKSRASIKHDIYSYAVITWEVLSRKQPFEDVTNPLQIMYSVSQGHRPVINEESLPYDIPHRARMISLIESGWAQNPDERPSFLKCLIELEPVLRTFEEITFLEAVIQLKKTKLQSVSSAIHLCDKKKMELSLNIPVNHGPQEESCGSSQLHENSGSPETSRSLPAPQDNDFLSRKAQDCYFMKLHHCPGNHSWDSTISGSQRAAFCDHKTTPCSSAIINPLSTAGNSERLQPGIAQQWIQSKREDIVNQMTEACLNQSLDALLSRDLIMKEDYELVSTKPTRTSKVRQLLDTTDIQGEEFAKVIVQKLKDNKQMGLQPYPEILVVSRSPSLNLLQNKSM
Description: as §1, §2, §3, §4

PHKG2 = target: T11, PHKG2 (Homo sapiens, UniProt P15735); details: PHKG2, 1 µM; read-out: Residual Activity (%)
T11 construct: purchased ProQinase
Description: as §1, §2, §3, §4

MUSK = target: T12, MUSK (Homo sapiens, UniProt O15146); details: read-out: Residual Activity (%)
T12 construct: purchased ProQinase
Description: as §1, §2, §3, §4

TTK = target: T13, TTK (Homo sapiens, UniProt P33981); details: read-out: Residual Activity (%)
T13 construct: purchased ProQinase
Description: as §1, §2, §3, §4

ERK1 = target: T14, ERK1 (Homo sapiens, UniProt P27361); details: ERK1, 1 µM; read-out: Residual Activity (%)
T14 construct: purchased ProQinase
Description: as §1, §2, §3, §4

SIK3 = target: T15, SIK3 (Homo sapiens, UniProt Q9Y2K2); details: SIK3, 1 µM; read-out: Residual Activity (%)
T15 construct: purchased ProQinase
Description: as §1, §2, §3, §4

Aurora-B = target: T16, Aurora-B (Homo sapiens, UniProt Q96GD4); details: read-out: Residual Activity (%)
T16 construct: purchased ProQinase
T16 sequence (Q96GD4 whole entry): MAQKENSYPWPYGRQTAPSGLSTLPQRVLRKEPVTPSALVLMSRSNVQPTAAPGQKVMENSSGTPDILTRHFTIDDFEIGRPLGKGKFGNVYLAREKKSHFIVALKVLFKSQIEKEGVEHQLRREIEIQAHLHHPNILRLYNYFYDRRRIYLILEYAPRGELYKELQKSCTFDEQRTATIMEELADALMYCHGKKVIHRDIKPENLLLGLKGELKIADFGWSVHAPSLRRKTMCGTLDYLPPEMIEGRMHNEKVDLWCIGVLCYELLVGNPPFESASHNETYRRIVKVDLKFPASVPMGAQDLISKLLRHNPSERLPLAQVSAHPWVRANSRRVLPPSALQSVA
Description: as §1, §2, §3, §4

JNK3 = target: T17, JNK3 (Homo sapiens, UniProt P53779); details: JNK3, 1 µM; read-out: Residual Activity (%)
T17 construct: purchased ProQinase
Description: as §1, §2, §3, §4

TTBK2 = target: T18, TTBK2 (Homo sapiens, UniProt Q6IQ55); details: TTBK2, 1 µM; read-out: Residual Activity (%)
T18 construct: purchased ProQinase
Description: as §1, §2, §3, §4

LIMK2 = target: T19, LIMK2 (Homo sapiens, UniProt P53671); details: LIMK2, 1 µM; read-out: Residual Activity (%)
T19 construct: purchased ProQinase
T19 sequence (P53671 whole entry): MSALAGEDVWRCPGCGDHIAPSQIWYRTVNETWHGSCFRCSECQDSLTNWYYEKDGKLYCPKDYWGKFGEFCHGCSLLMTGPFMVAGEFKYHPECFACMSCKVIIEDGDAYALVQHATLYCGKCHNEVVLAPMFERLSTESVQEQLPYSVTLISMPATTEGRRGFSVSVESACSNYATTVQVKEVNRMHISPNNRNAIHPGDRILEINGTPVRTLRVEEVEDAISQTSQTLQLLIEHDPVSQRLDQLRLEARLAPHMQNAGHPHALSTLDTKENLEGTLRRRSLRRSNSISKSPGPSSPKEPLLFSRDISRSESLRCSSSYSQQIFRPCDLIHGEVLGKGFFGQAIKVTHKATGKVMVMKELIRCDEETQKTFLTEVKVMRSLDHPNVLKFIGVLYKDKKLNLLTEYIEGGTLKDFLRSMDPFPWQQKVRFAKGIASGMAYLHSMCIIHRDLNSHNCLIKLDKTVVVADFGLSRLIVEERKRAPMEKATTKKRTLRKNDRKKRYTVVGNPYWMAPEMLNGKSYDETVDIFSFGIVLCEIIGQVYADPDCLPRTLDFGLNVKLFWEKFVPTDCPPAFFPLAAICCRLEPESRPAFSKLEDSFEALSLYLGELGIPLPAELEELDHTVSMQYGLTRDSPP
Description: as §1, §2, §3, §4

NEK1 = target: T20, NEK1 (Homo sapiens, UniProt Q96PY6); details: NEK1, 1 µM; read-out: Residual Activity (%)
T20 construct: purchased ProQinase
Description: as §1, §2, §3, §4

CDK2/CycE1 = target: T21, CDK2/CycE1 (Homo sapiens, UniProt P24941); details: CDK2/CycE1, 1 µM; read-out: Residual Activity (%)
T21 construct: purchased ProQinase
Description: as §1, §2, §3, §4

TEC = target: T22, TEC (Homo sapiens, UniProt P42680); details: read-out: Residual Activity (%)
T22 construct: purchased ProQinase
Description: as §1, §2, §3, §4

BMPR1A = target: T23, BMPR1A (Homo sapiens, UniProt P36894); details: read-out: Residual Activity (%)
T23 construct: purchased ProQinase
Description: as §1, §2, §3, §4

FGF-R4 = target: T24, FGF-R4 (Homo sapiens, UniProt P22455); details: FGF-R4, 1 µM; read-out: Residual Activity (%)
T24 construct: purchased ProQinase
Description: as §1, §2, §3, §4

CDK4/CycD3 = target: T25, CDK4/CycD3 (Homo sapiens, UniProt P11802); details: CDK4/CycD3, 1 µM; read-out: Residual Activity (%)
T25 construct: purchased ProQinase
T25 sequence (P11802 whole entry): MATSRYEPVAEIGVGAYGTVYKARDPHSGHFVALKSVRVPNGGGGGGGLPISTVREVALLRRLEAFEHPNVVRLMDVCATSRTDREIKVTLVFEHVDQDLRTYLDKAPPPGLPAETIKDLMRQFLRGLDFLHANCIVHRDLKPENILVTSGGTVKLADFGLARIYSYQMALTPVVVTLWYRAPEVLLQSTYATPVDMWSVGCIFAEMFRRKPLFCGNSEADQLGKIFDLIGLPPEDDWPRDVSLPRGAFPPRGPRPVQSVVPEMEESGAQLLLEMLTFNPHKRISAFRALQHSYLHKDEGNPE
T25 sequence (P30281 whole entry partner): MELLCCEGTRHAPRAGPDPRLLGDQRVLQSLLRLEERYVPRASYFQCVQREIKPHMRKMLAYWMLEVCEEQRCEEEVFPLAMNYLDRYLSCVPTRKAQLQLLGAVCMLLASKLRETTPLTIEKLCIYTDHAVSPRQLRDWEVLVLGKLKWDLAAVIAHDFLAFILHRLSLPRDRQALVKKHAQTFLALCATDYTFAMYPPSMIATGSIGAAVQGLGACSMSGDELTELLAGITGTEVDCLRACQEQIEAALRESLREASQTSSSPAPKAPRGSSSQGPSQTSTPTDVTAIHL
Description: as §1, §2, §3, §4

PBK = target: T26, PBK (Homo sapiens, UniProt Q96KB5); details: read-out: Residual Activity (%)
T26 construct: purchased ProQinase
Description: as §1, §2, §3, §4

IKK-epsilon = target: T27, IKK-epsilon (Homo sapiens, UniProt Q14164); details: read-out: Residual Activity (%)
T27 construct: purchased ProQinase
T27 sequence (Q14164 whole entry): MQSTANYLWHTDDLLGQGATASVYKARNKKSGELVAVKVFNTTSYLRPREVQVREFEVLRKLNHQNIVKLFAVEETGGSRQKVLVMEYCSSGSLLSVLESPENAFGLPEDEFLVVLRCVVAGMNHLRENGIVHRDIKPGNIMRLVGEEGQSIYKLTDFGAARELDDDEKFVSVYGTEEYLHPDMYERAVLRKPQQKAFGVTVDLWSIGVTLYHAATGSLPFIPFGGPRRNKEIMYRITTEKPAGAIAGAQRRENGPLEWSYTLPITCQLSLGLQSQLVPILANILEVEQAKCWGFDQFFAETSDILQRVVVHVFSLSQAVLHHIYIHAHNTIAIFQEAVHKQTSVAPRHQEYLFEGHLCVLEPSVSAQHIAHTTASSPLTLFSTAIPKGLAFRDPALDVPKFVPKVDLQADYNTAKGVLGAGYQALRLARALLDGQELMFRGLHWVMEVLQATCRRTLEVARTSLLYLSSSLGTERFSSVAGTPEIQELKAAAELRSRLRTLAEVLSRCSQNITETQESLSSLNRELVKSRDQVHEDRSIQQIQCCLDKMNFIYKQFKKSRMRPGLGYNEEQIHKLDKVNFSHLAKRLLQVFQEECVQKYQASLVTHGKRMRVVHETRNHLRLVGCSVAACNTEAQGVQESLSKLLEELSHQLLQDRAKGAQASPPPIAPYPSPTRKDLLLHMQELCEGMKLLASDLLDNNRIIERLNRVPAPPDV
Description: as §1, §2, §3, §4

FGF-R1 = target: T28, FGF-R1 (Homo sapiens, UniProt P11362); details: FGF-R1, 1 µM; read-out: Residual Activity (%)
T28 construct: purchased ProQinase
Description: as §1, §2, §3, §4

SLK = target: T29, SLK (Homo sapiens, UniProt Q9H2G2); details: read-out: Residual Activity (%)
T29 construct: purchased ProQinase
Description: as §1, §2, §3, §4

S6K = target: T30, S6K (Homo sapiens, UniProt P23443); details: read-out: Residual Activity (%)
T30 construct: purchased ProQinase
Description: as §1, §2, §3, §4

T1 sequence (Q9BZL6 whole entry): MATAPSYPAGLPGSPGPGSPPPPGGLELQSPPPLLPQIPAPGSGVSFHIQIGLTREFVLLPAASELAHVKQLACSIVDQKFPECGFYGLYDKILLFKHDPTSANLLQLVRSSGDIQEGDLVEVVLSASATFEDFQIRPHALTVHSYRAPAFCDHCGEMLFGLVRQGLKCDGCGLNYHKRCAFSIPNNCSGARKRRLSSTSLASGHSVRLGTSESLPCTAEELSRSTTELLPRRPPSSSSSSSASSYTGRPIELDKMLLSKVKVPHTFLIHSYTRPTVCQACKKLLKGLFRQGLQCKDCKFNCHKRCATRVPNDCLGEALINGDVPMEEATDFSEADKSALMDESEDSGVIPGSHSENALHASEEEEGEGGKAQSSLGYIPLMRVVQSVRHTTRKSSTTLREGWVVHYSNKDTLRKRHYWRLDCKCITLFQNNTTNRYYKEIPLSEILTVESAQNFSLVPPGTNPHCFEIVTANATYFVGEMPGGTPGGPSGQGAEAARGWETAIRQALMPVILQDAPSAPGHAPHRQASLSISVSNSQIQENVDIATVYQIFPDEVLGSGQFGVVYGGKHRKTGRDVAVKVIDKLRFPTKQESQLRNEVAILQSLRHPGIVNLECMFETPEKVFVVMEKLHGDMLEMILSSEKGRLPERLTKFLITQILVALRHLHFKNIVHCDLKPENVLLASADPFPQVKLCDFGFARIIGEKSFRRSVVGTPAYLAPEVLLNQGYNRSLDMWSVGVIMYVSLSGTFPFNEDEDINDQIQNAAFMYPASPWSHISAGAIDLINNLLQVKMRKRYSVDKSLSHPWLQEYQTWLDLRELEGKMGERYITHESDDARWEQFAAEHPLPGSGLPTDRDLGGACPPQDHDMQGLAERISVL

In the case of `COc1ccc(-c2cc(C(=O)Nc3cc(-c4c(-c5ccc(F)cc5)noc4C(C)C)ccn3)n(CC3NCC(O)C3O)c2)cc1` (stereo not drawn) [29d], the remaining activity at 1 µM (PRKD2) was 110%, the remaining activity at 1 µM (VEGF-R3) was 124% and the remaining activity at 1 µM (MEKK2) was 111%. The remaining activity at 1 µM (IKK-beta) was 92%, the remaining activity at 1 µM (PKMYT1) was 107% and the remaining activity at 1 µM (JNK2) was 40%. It also gave a remaining activity at 1 µM (PKC-delta) of 100%, a remaining activity at 1 µM (EPHA5) of 103% and a remaining activity at 1 µM (BRSK1) of 104%. It also gave a remaining activity at 1 µM (RIPK2) of 108%, a remaining activity at 1 µM (PHKG2) of 93% and a remaining activity at 1 µM (MUSK) of 97%. For the same compound, the remaining activity at 1 µM (TTK) was 100%, the remaining activity at 1 µM (ERK1) was 102% and the remaining activity at 1 µM (SIK3) was 104%. It also gave a remaining activity at 1 µM (Aurora-B) of 96%, a remaining activity at 1 µM (JNK3) of 15% and a remaining activity at 1 µM (TTBK2) of 101%. It also gave a remaining activity at 1 µM (LIMK2) of 98%, a remaining activity at 1 µM (NEK1) of 101% and a remaining activity at 1 µM (CDK2/CycE1) of 93%. The remaining activity at 1 µM (TEC) was 109%, the remaining activity at 1 µM (BMPR1A) was 96% and the remaining activity at 1 µM (FGF-R4) was 125%. It also gave a remaining activity at 1 µM (CDK4/CycD3) of 98%, a remaining activity at 1 µM (PBK) of 89% and a remaining activity at 1 µM (IKK-epsilon) of 94%. The remaining activity at 1 µM (FGF-R1) was 138%, the remaining activity at 1 µM (SLK) was 114% and the remaining activity at 1 µM (S6K) was 102%.
